The results in this text go back to ChEMBL document CHEMBL1144998, “C(8) substituted 1-azabicyclo[3.3.1]non-3-enes and C(8) substituted 1-azabicyclo[3.3.1]nonan-4-ones: novel muscarinic receptor antagonists” (J Med Chem, 2003).

Assay [1] addresses T1, Muscarinic acetylcholine receptor M1 (Homo sapiens, UniProt P11229).
T1 sequence (P11229 whole entry): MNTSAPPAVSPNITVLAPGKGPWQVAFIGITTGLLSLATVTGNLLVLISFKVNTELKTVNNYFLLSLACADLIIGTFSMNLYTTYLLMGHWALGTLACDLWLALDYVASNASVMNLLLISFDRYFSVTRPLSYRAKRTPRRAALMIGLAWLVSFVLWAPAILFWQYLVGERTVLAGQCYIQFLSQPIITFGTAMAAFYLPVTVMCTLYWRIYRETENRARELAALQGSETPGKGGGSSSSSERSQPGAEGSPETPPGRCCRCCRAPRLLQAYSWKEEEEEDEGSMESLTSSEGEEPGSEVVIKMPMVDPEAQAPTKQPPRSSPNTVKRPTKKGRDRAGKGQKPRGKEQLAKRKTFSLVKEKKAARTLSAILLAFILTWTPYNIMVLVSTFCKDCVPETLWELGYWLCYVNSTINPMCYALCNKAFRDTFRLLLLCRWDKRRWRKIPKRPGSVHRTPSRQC
Briefly: Binding affinity of compound was determined towards human Muscarinic acetylcholine receptor M1 using [3H]QNB radioligand.

Assay [2] addresses T2, Muscarinic acetylcholine receptor M5 (Homo sapiens, UniProt P08912).
T2 sequence (P08912 whole entry): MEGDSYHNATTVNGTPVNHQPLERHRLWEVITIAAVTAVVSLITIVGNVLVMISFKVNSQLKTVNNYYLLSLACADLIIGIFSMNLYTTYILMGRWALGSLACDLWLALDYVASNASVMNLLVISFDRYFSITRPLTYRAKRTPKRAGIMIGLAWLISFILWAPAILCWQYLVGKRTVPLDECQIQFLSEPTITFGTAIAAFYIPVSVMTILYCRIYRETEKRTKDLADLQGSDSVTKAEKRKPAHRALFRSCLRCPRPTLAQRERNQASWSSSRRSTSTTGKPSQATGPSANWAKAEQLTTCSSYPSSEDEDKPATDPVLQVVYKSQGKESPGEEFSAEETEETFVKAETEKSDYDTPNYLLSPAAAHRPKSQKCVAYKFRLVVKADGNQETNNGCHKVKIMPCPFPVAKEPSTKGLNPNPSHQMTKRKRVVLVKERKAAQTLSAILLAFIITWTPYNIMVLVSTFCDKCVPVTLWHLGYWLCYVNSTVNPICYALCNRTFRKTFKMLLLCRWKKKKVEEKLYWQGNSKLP
Briefly: Binding affinity of compound was determined towards human Muscarinic acetylcholine receptor M5 using [3H]QNB radioligand.

For assay [3], the target named is Muscarinic acetylcholine receptor M3 (Homo sapiens, UniProt P20309). The assay can be described thus: Binding affinity of compound was determined towards human Muscarinic acetylcholine receptor M3 using [3H]QNB radioligand.
Assay [4] deals with T3, Muscarinic acetylcholine receptor M2 (Homo sapiens, UniProt P08172).
T3 sequence (P08172 whole entry): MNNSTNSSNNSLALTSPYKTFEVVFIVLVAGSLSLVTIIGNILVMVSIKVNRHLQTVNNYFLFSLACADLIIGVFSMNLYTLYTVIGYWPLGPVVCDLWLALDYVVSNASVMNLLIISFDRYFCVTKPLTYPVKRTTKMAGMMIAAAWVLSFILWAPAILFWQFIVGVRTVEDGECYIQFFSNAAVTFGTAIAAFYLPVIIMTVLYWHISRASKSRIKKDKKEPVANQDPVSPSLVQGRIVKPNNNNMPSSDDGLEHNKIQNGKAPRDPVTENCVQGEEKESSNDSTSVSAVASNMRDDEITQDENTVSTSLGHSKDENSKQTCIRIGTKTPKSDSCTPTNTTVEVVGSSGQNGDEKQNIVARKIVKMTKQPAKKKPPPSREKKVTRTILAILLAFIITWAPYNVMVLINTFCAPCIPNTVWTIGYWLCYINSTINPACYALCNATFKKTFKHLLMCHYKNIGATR
Briefly: Binding affinity of compound was determined towards human Muscarinic acetylcholine receptor M2 using [3H]QNB radioligand.

The target of assay [5] is T4, Muscarinic acetylcholine receptor M4 (Homo sapiens, UniProt P08173).
T4 sequence (P08173 whole entry): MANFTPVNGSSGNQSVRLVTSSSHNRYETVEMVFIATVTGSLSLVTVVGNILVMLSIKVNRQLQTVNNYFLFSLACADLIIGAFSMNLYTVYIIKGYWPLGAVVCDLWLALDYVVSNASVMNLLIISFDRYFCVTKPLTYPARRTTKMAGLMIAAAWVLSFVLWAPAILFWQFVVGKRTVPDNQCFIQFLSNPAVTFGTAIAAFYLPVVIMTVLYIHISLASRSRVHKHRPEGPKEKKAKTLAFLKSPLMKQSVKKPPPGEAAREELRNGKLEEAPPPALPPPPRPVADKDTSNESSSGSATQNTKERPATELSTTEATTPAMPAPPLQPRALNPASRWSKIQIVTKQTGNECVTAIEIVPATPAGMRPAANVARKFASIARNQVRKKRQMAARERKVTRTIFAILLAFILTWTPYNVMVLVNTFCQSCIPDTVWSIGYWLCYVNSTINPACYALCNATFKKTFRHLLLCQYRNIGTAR
The assay can be described thus: Binding affinity of compound was determined towards human Muscarinic acetylcholine receptor M4 using [3H]QNB radioligand.

pKi: −log10 of the molar value. Some results are limits rather than exact numbers.

Sequence of Muscarinic acetylcholine receptor M3 (P20309 whole entry): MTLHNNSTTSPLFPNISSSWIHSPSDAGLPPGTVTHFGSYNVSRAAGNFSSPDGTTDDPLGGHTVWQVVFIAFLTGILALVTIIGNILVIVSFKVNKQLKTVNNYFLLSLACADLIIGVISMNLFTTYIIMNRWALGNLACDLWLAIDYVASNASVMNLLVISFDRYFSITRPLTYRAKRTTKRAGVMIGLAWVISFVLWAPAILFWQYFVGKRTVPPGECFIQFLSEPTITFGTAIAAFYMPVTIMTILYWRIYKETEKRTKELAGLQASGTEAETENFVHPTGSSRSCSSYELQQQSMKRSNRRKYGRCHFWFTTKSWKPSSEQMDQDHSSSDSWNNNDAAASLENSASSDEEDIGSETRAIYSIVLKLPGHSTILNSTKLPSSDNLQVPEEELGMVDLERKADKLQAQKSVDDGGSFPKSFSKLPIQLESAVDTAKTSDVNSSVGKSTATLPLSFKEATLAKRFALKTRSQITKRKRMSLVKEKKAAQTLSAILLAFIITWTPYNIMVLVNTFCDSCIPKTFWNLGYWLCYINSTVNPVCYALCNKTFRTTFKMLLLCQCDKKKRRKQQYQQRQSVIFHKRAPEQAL

The pKi is −log10 of the Ki, conventionally taken in molar units. Low values mean a high Ki, high ones a low Ki. As to `CCO/C(O)=C1\CN2CCCC(C2)C1=O` (configuration not stated), the negative logarithm of the Ki (pKi) is 5.92 in assay [1]; 6.01 in assay [2]; 5.82 in assay [3]; 5.80 in assay [4]; 5.59 in assay [5].

For `CCO/C(O)=C1\CN2CC(CCC2COCc2ccccc2)C1=O` (stereo in doubt; 3), the pKi in assay [1] is 6.60; in assay [2], 6.25; in assay [3], 6.08; in assay [4], 7.10; in assay [5] it was 6.57.

Turning to `CCO/C(O)=C1\CN2CC(CCC2COCc2ccccc2)C1=O` (stereo in doubt; 4), the pKi in assay [1] was 5.18; in assay [2], 5.52; in assay [3], 5.12; in assay [4] it was 5.39; in assay [5] it was 4.96.

`CCO/C(O)=C1\CN2CC(CCC2CN(C)C)C1=O` (stereo in doubt; 5): the pKi is less than 4.00 in assay [1]; less than 4.00 in assay [2]; less than 4.00 in assay [3]; 4.07 in assay [4]; less than 4.00 in assay [5].

On to `CCO/C(O)=C1\CN2CC(CCC2CN(C)C)C1=O` (stereo in doubt; 6), for which the negative logarithm of the Ki (pKi) in assay [3] was 4.43; in assay [4], less than 4.00.
